In series [1] the target is ATR (Homo sapiens (Human), UniProt Q13535). Kind of series: Enzyme ATR in vitro enzyme assay (ELISA, phospho-Ser15 p53 substrate). The conditions noted are these: ATR immunoprecipitated from HeLa nuclear extract; GST-p53N66 substrate; ATP 3 μM; 37° C. Format: biochemical. As to the method:
ATR for use in the in vitro enzyme assay was obtained from HeLa nuclear extract (CIL Biotech, Mons, Belgium) by immunoprecipitation with rabbit polyclonal antiserum raised to amino acids 400-480 of ATR (Tibbetts R S et al, 1999, Genes Dev. 13:152-157) contained in the following buffer (25 mM HEPES (pH7.4), 2 mM MgCl2, 250 mM NaCl, 0.5 mM EDTA, 0.1 mM Na3V04, 10% v/v glycerol, and 0.01% v/v Tween 20). ATR-antibody complexes were isolated from nuclear extract by incubating with protein A-Sepharose beads (Sigma, #P3476) for 1 hour and then through centrifugation to recover the beads. In the well of a 96-well plate, […] Sepharose beads were incubated with 1 μg of substrate glutathione S-transferase-p53N66 (NH2-terminal 66 amino acids of p53 fused to glutathione ^-transferase was expressed in E. coli) in ATR assay buffer (50 mM HEPES (pH 7.4), 150 mM NaCl, 6 mM MgCl2, 4 mM MnCl2, 0.1 mM Na3V04, 0.1 mM DTT, and 10% (v/v) glycerol) at 37° C. in the presence or absence of inhibitor. After 10 minutes with gentle shaking, ATP was added to a final concentration of 3 μM and the reaction continued at 37° C. for an additional 1 hour. The reaction was stopped by addition of IOOμí PBS and the reaction was transferred to a white opaque glutathione coated 96-well plate (NUNC #436033) and incubated overnight at 4° C. This plate was then washed with PBS/0.05%>(v/v) Tween 20, blotted dry, and analyzed by a standard ELISA (Enzyme-Linked Immunosorbent Assay) technique with a phospho-serine 15 p53 (16G78) antibody (Cell Signaling Technology, #9286). The detection of phosphorylated glutathione S-transferase-pSSNee substrate was performed in combination with a goat anti-mouse horseradish peroxidase-conjugated secondary antibody (Pierce, #31430). Enhanced chemiluminescence solution (NEN, Boston, Mass.) was used to produce a signal and chemiluminescent detection was carried out via a TopCount (Packard, Meriden, Conn.) plate reader.
Background: An ELISA detects its analyte on a solid surface through an enzyme-linked reagent.

Series [2] relates to ATM-Deficient Colorectal Cancer LoVo Cell Lines. Put plainly: In vitro anti-proliferation assay (ATPlite luminescence). Format: cell-based. The conditions noted are these: Homo sapiens; LoVo cells; about 72 hours; 5% FBS. As to the method: Cell antiproliferation was assayed by PerkinElmer ATPlite™ Luminescence Assay System. Briefly, the various test cancer cell lines were plated at a density of about 1×10^4 cells per well in Costar 96-well plates, and were incubated with different concentrations of compounds for about 72 hours in medium supplemented with 5% FBS. One lyophilized substrate solution vial was then reconstituted by adding 5 mL of substrate buffer solution, and was agitated gently until the solution was homogeneous. About 50 μL of mammalian cell lysis solution was added to 100 μL of cell suspension per well of a microplate, and the plate was shaken for about five minutes in an orbital shaker at ˜700 rpm. This procedure was used to lyse the cells and to stabilize the ATP. Next, 50 μL substrate solution was added to the wells and microplate was shaken for five minutes in an orbital shaker at ˜700 rpm. Finally, the luminescence was measured by a PerkinElmer TopCount® Microplate Scintillation Counter. Such assays, carried out with a range of doses of test compounds, allowed the determination of the cellular anti-antiproliferative IC50 of the compounds of the present invention. The following table lists the IC50 values of several cancer cell lines (5% FBS) for certain compounds of the invention.
On the technique in general: In ATP-based viability assays light output follows the ATP content of the culture.

The nature of series [3]: Mice PK study. As to conditions: CD-1 mouse; oral dosing po, 10 mg/kg; plasma. Format: in vivo. On the procedure:
The pharmacokinetics of compounds were evaluated in CD-1 mouse via Intravenous and Oral Administration. The IV dose was administered as a slow bolus in the Jugular vein, and oral doses were administered by gavage. The formulation for IV dosing was 5% DMSO in 20% HPBCD in water, and the PO formulation was 2.5% DMSO, 10% EtOH, 20% Cremphor EL, 67.5% D5W. The PK time point for the IV arm was 5, 15, 30 min, 1, 2, 4, 6, 8, 12, 24 hours post dose, and for PO arm was 15, 30 min, 1, 2, 4, 6, 8, 12, 24 hours post dose. Approximately 0.03 mL blood was collected at each time point. Blood of each sample was transferred into plastic micro centrifuge tubes containing EDTA-K2 and collect plasma within 15 min by centrifugation at 4000 g for 5 minutes in a 4° C. centrifuge. Plasma samples were stored in polypropylene tubes. The samples were stored in a freezer at −75±15° C. prior to analysis. Concentrations of compounds in the plasma samples were analyzed using a LC-MS/MS method. WinNonlin (Phoenix™, version 6.1) or other similar software was used for pharmacokinetic calculations. The following pharmacokinetic parameters were calculated, whenever possible from the plasma concentration versus time data: IV administration: C0, CL, Vd, T1/2, AUCinf, AUClast, MRT, Number of Points for Regression; PO administration: Cmax, Tmax, T1/2, AUCinf, AUClast, F %, Number of Points for Regression. […]

Chain of ATR (Q13535 whole entry, the tested form may be a part): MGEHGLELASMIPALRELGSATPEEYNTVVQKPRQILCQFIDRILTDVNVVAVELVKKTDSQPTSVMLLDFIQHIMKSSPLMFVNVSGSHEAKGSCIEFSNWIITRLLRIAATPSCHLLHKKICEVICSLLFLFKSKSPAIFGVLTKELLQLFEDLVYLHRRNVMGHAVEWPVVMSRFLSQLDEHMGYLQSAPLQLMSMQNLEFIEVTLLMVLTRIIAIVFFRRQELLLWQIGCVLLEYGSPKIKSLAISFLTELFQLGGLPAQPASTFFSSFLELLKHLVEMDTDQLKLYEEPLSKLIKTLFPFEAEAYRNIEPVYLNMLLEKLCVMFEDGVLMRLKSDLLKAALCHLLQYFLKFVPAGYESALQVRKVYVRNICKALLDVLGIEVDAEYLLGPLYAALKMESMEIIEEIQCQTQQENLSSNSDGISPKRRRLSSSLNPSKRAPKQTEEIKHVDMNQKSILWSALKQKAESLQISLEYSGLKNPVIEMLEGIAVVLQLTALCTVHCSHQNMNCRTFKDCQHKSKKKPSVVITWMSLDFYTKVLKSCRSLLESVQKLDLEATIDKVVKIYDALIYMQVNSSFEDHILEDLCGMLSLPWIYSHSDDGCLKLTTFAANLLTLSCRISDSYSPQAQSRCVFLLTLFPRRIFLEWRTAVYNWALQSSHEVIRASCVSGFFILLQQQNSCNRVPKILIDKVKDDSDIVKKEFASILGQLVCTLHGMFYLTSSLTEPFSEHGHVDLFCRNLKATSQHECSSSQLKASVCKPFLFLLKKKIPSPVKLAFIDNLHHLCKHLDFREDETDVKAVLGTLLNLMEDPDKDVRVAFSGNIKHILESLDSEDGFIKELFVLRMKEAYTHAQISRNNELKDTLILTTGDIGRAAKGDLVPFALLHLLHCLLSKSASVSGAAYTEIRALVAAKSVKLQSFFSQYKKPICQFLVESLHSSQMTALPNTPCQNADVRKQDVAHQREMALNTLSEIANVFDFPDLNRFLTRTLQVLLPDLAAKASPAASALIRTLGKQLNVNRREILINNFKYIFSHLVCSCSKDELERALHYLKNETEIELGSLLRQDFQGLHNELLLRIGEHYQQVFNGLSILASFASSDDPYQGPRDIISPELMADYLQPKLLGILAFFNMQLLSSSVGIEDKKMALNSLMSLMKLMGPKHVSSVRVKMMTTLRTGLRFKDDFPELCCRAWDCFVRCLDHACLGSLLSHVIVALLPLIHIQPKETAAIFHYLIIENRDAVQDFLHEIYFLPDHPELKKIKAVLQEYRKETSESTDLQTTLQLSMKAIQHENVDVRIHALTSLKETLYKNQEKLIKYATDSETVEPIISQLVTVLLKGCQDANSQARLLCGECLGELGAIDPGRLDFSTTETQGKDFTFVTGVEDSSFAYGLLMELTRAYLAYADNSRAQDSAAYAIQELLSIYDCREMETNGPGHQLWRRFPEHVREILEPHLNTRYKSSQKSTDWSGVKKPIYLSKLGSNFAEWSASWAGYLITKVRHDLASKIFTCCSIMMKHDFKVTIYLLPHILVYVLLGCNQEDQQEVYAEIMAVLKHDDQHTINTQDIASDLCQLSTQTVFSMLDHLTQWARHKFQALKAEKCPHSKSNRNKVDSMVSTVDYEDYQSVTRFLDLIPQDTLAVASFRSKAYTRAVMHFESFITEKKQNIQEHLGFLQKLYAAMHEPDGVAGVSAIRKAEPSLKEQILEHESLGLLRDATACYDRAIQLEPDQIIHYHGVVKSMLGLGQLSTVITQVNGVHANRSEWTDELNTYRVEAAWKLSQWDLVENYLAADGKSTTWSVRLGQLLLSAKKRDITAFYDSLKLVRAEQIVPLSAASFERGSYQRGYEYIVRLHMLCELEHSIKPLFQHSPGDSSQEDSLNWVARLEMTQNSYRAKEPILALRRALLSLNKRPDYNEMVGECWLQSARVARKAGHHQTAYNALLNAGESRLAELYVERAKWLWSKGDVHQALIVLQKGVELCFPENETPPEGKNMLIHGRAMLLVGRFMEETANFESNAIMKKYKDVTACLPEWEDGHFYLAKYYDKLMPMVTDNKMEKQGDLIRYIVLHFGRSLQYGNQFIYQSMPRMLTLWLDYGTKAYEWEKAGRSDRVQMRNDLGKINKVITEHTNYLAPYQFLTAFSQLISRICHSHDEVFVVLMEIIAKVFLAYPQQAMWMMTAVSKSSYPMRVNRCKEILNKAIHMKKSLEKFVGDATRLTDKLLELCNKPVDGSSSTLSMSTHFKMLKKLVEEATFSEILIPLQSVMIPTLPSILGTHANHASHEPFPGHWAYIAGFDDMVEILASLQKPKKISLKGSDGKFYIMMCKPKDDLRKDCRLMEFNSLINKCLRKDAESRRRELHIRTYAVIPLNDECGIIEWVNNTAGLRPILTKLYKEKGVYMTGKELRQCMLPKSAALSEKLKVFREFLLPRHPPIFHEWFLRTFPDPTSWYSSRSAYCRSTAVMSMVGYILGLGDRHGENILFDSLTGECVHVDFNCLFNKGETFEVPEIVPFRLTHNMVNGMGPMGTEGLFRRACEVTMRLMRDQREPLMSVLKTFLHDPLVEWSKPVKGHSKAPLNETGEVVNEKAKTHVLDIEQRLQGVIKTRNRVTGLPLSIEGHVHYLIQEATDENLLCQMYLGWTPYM
Chain of ATR (Q8WXE1 whole entry partner, the tested form may be a part): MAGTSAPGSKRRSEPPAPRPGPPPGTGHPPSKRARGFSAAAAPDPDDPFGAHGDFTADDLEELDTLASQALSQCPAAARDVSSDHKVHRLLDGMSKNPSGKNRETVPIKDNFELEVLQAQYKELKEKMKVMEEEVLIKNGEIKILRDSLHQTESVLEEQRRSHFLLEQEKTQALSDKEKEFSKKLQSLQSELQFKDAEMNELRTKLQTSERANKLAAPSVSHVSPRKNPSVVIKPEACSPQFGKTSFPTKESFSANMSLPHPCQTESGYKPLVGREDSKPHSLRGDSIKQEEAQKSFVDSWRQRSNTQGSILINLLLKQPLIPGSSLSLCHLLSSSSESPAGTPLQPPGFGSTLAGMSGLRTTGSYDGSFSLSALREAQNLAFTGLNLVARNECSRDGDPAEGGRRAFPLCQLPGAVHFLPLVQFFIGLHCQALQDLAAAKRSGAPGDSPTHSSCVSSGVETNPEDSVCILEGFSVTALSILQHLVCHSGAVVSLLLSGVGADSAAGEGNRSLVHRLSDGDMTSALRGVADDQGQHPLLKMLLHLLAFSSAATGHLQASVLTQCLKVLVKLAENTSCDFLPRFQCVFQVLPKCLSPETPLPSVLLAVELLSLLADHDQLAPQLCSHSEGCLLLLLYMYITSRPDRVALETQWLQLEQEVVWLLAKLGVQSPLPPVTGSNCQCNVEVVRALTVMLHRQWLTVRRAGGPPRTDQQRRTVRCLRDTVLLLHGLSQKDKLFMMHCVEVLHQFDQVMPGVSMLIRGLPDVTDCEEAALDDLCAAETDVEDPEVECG

The term IC50 denotes the concentration at which inhibition is half-maximal. Regarding `[2H]C([2H])([2H])N=S(C)(=O)C1(c2cc(N3CCOC[C@H]3C)nc(-c3ccnc4[nH]ccc34)n2)CC1` (stereo partly drawn) [CY-209, (2H3)methyl[methyl(1-[6-[(3R)-3-methylmorpholin-4-yl]-2-[1H-pyrrolo[2,3-b]pyridin-4-yl]pyrimidin-4-yl]cyclopropyl)oxo-lambda6-sulfanylidene]amine], the concentration for half-maximal inhibition (IC50) in series [1] is under 3 nM.

Take `C[C@@H]1COCCN1c1cc(C(C)(O)C(F)(F)F)nc(-c2ccnc3[nH]ccc23)n1` (stereo partly drawn) [CY-257, 1,1,1-trifluoro-2-[6-[(3R)-3-methylmorpholin-4-yl]-2-[1H-pyrrolo[2,3-b]pyridin-4-yl]pyrimidin-4-yl]propan-2-ol]: the IC50 is under 3 nM in series [1] and 830 nM in series [2].

With `C[C@@H]1COCCN1c1cc(NCC2CC(F)(F)C2)nc(-c2ccnc3[nH]ccc23)n1` [CY-249, N-[(3,3-difluorocyclobutyl)methyl]-6-[(3R)-3-methylmorpholin-4-yl]-2-[1H-pyrrolo[2,3-b]pyridin-4-yl]pyrimidin-4-amine], the values for the IC50 in series [1] and in series [2] were under 3 nM and 510 nM, respectively.

As a reminder, the AUC(0-t) is the area under the concentration-time curve up to a stated or last time point. A higher AUC(0-t) goes with high exposure. Take `C[C@@H]1COCCN1c1cc(C(C)(C)C#N)nc(-c2ccnc3[nH]ccc23)n1` [CY-237, 2-methyl-2-[6-[(3R)-3-methylmorpholin-4-yl]-2-[1H-pyrrolo[2,3-b]pyridin-4-yl]pyrimidin-4-yl]propanenitrile]: the IC50 is under 3 nM in series [1] and 480 nM in series [2]. Moreover, the AUC(0-t) in series [3] came to 4390 ng·h/mL.

With `C[C@@H]1COCCN1c1cc(C(C)(C)O)nc(-c2ccnc3[nH]ccc23)n1` [CY-212, 2-[6-[(3R)-3-methylmorpholin-4-yl]-2-[1H-pyrrolo[2,3-b]pyridin-4-yl]pyrimidin-4-yl]propan-2-ol], the IC50 in series [1] is under 3 nM.

Consider `C[C@@H]1COCCN1c1cc(C2([S@](C)(=N)=O)CC2)nc(-c2cc[nH]c3nccc2-3)n1` [AZD-6738, reference compound], for which, in series [2], the IC50 is 800 nM. Moreover, the AUC(0-t) in series [3] came to 3100 ng·h/mL.

Turning to `CN=S(C)(=O)C1(c2cc(N3CCOC[C@H]3C)nc(-c3ccnc4[nH]ccc34)n2)CC1` (stereo partly drawn) [CY-200-1, Methyl[methyl(1-[6-[(3R)-3-methylmorpholin-4-yl]-2-[1H-pyrrolo[2,3-b]pyridin-4-yl]pyrimidin-4-yl]cyclopropyl)oxo-lambda-sulfanylidene]amine], the IC50 in series [1] is under 3 nM.

These data come from patent publication US11236089B2, “Substituted pyrrolopyridines as ATR inhibitors” (BlueValley Pharmaceutical LLC, priority 2017, dated 2022).
